From US20260137806A1, “INTERCALATING SUGAR MOLECULES” (Xalud Therapeutics, Inc., priority 2022, published 2026)
Several values for one entry are separate records, joined by “and”; a condition that tells them apart may be missing. Equal entries are not always repeated.

Legend:
DNA plasmid = experiment: Quinacrine-DNA binding saturation (absorbance titration); conditions: 4 mM or 8 mM phosphate/citrate buffer; FIG. 3
Protocol: FIG. 2 is a wavelength versus absorbance graph used to study quinacrine-DNA binding. Quinacrine concentrations were held constant under low ionic conditions (10 mM Na^+), and DNA plasmid was titrated. Absorbance was measured at 260 nm (DNA absorbance), 424 nm (quinacrine absorbance), 445 nm (quinacrine absorbance), and 461 nm (isobestic point).
FIG. 3 is a plasmid:quinacrine ratio versus absorbance graph used to study quinacrine-DNA binding saturation. The recovery of absorbance (marked with an arrow) indicates saturation. Saturation occurred at a plasmid/quinacrine ratio of 8 in 4 mM or 8 mM phosphate/citrate buffer.

[1] = Kinetic solubility measurements; conditions: aqueous buffer, kinetic from dmso stock
[2] = system: NR8383 rat alveolar macrophages; experiment: Cellular delivery: pDNA uptake (ddPCR); type: cell-based; conditions: LPS-activated NR8383; for pDNA copies per μL cell suspension: D-mannose plus pDNA
Protocol: The cell line used was NR8383 rat alveolar macrophages, which grow as a mixture of suspended and adherent cells. The culture medium was F-12K Medium+15% FBS. The cells were plated in a 24-well format at a seeding density of 4-6×10^5 cells/mL into the wells of a 24-well plate. All conditions were performed in duplicate. The testing conditions used NR8383 cells in both unactivated and activated states. […] Activated macrophages are characteristic of macrophages found in inflammatory disease states. […] Either 0, 1, or 2 μg pDNA was used per well, with or without mannose. The combination of pDNA minus D-mannose serves as pDNA control for all conditions. The combination of pDNA with uncomplexed Mannoquin 38 was completed by adding separate pDNA and Mannoquin 38 solutions to culture. Also, pDNA with complexed Mannoquin 38 were studied wherein pre-incubated pDNA and Mannoquin 38 solutions were added to the culture. Lipofectamine 2000 transfections per manufacturer's instructions was used as a positive control. Separate confirmation of successful transfection with Lipofectamine 2000 has been confirmed. The pDNA solution used was 40 μg/mL pDNA in PBS (herein after “Working pDNA solution”). […] For studies with no pDNA, 100 μL of 1×PBS was added to the appropriate culture wells. For plasmid-only conditions, to the appropriate culture wells, 100 μL of DNA solutions was added, wherein the solution was 50 μL of Working pDNA solution+150 μL of 1×PBS (1 μg pDNA) or 100 μL of Working pDNA solution+100 μL of 1×PBS (2 μg pDNA). For non-complexed test agent conditions, to the appropriate culture wells, 50 μL of each separately prepared solution was added: DNA solution (0, 25, or 50 μL Working pDNA solution+100, 75, or 50 μL 1×PBS, respectively) or test agent solution (25, 25, or 50 μL Test Agent Working solution+75, 75, or 50 μL 1×PBS, respectively). […] PCR reaction was performed and read according to the manufacturer's protocol.

## CCN(CC)CCCC(C)Nc1c2ccc(Cl)cc2nc2ccc(OC)cc12 (centres unmarked) [quinacrine]
DNA plasmid
  plasmid/quinacrine ratio at saturation: 8

## C[C@]12CC[C@H]3[C@@H](CCC4=CC(=O)CC[C@@]43C)[C@@H]1CC[C@@H]2O [Testosterone]
[1]
  solubility at 4 h: 40 µM and 12 µg/mL

## O=C[C@@H](O)[C@@H](O)[C@H](O)[C@H](O)CO [D-mannose]
[2]; 1 μg pDNA
  pDNA copies per μL cell suspension: 68 copies per μL cell suspension
[2]; 2 μg pDNA
  pDNA copies per μL cell suspension: 68.4 copies per μL cell suspension
[2]; agent plus pDNA, not complexed
  dose-dependency of uptake based on pDNA level: no dose-dependency
